Test results taken from article PMC9963121, “Development of Combretastatin A-4 Analogues as Potential Anticancer Agents with Improved Aqueous Solubility” (Molecules, 2023).
Where a name gives a salt, the structure may show the parent alone.

Tested on: HCT-116 colorectal cancer cell
Experiment: MTT cell growth inhibition assay, HCT-116 colorectal cancer cells
Assay type: cell-based, human
Settings: Homo sapiens, HCT-116; MTT; mean ± SD of three experiments
Source text: (§1) Initially, we designed and synthesised seven compounds—9a and 12a1–12a6—and evaluated the anticancer activity and aqueous solubility. We evaluated the cytotoxic effects of these stilbene nitrile analogues against a panel of four human cancer cell lines (HCT-116, BEL-7402, MCF-7 and AGS) and two human non-cancerous normal cell lines (L-02 and MCF-10A), using CA-4 as a control. The compounds were screened for aqueous solubility in 0.01 M PBS using a high throughput UV method. […] It is possible that the size of the nitrogen heterocycle had little effect on the activity of these compounds. […] The aqueous solubility of all the compounds 12a1–12a6 was higher than that of 9a, particularly that of 12a1 and 12a2 containing piperazine rings. […] Of the six compounds with improved aqueous solubility, 12a1 had the best activity.
(§2) All human cell lines were used in this study. AGS gastric cancer cell, BEL-7402 liver cancer cell, HCT-116 colorectal cancer cell, L-02 normal liver cell, MCF-7 breast cancer cell, and MCF-10A normal breast cell were initially purchased from American Type Culture Collection (ATCC, Manassas, VA, USA). RPMI-1640 media, DMEM and FBS, were provided by Gibco Company. The cells were maintained in DMEM or RPMI-1640, supplemented with 10% FBS, 100 IU/mL penicillin and […] streptomycin, and at 37 °C in a humidified atmosphere containing 5% CO2.
(§3) The experiment was carried out according to the method of reference.
Work on COc1cc(/C(C#N)=C/c2ccc(N)cc2C)cc(OC)c1OC [9b] yielded an IC50 of 0.16 ± 0.02 µM. COc1ccc(/C(C#N)=C/c2ccc(N)cc2)cc1OC [9c] gave an IC50 of 4.05 ± 0.72 µM. COc1ccc(/C(C#N)=C/c2ccc(N)cc2C)cc1OC [9d, (Z)-3-(4-Amino-2-methylphenyl)-2-(3,4-dimethoxyphenyl)acrylonitrile monohydrochloride] gave an IC50 of 5.86 ± 0.77 µM. CCN1CCN(CC(=O)Nc2ccc(/C=C(\C#N)c3cc(OC)c(OC)c(OC)c3)cc2)CC1 [12a2] gave an IC50 of 5.37 ± 0.03 µM. COc1cc(/C(C#N)=C/c2ccc(NC(=O)CN3CCCC3)cc2)cc(OC)c1OC [12a3] showed an IC50 of 2.56 ± 0.58 µM.

Tested on: AGS gastric cancer cell
Experiment: MTT cell growth inhibition assay, AGS gastric cancer cells
Assay type: cell-based
Settings: Homo sapiens, mean ± SD of three experiments
Source text: as §1, §2, §3
In the case of COc1cc(/C(C#N)=C/c2ccc(N)cc2C)cc(OC)c1OC [9b], the IC50 is reported as 0.8 ± 0.14 µM. COc1ccc(/C(C#N)=C/c2ccc(N)cc2)cc1OC [9c] gave an IC50 of 19.5 ± 3.61 µM. For COc1ccc(/C(C#N)=C/c2ccc(N)cc2C)cc1OC [9d, (Z)-3-(4-Amino-2-methylphenyl)-2-(3,4-dimethoxyphenyl)acrylonitrile monohydrochloride], the IC50 was 16.4 ± 0.42 µM. CCN1CCN(CC(=O)Nc2ccc(/C=C(\C#N)c3cc(OC)c(OC)c(OC)c3)cc2)CC1 [12a2] gave an IC50 of 11.9 ± 2.62 µM. In the case of COc1cc(/C(C#N)=C/c2ccc(NC(=O)CN3CCCC3)cc2)cc(OC)c1OC [12a3], the IC50 is reported as 17.9 ± 1.75 µM.

Tested on: BEL-7402 liver cancer cell
Experiment: MTT cell growth inhibition assay, BEL-7402 liver cancer cells
Assay type: cell-based
Settings: Homo sapiens, mean ± SD of three experiments, read-out: IC50 BEL-7402 Hepatoma Cells
Source text: as §1, §2, §3
COc1cc(/C(C#N)=C/c2ccc(N)cc2C)cc(OC)c1OC [9b] showed an IC50 of 0.16 ± 0.02 µM. COc1ccc(/C(C#N)=C/c2ccc(N)cc2)cc1OC [9c] gave an IC50 of 3.91 ± 0.8 µM. Compound COc1ccc(/C(C#N)=C/c2ccc(N)cc2C)cc1OC [9d, (Z)-3-(4-Amino-2-methylphenyl)-2-(3,4-dimethoxyphenyl)acrylonitrile monohydrochloride] has an IC50 of 9.72 ± 0.9 µM. With CCN1CCN(CC(=O)Nc2ccc(/C=C(\C#N)c3cc(OC)c(OC)c(OC)c3)cc2)CC1 [12a2] the IC50 was 5.1 ± 0.37 µM. With COc1cc(/C(C#N)=C/c2ccc(NC(=O)CN3CCCC3)cc2)cc(OC)c1OC [12a3] the IC50 was 4.63 ± 0.89 µM.

Tested on: MCF-7 breast cancer cell
Experiment: MTT cell growth inhibition assay, MCF-7 breast cancer cells
Assay type: cell-based
Settings: Homo sapiens, MCF7, mean ± SD of three experiments
Source text: as §1, §2, §3
For COc1cc(/C(C#N)=C/c2ccc(N)cc2C)cc(OC)c1OC [9b], the IC50 was > 100 µM. With COc1ccc(/C(C#N)=C/c2ccc(N)cc2)cc1OC [9c] the IC50 was 62.1 ± 8.12 µM. For COc1ccc(/C(C#N)=C/c2ccc(N)cc2C)cc1OC [9d, (Z)-3-(4-Amino-2-methylphenyl)-2-(3,4-dimethoxyphenyl)acrylonitrile monohydrochloride], the IC50 was > 100 µM. For CCN1CCN(CC(=O)Nc2ccc(/C=C(\C#N)c3cc(OC)c(OC)c(OC)c3)cc2)CC1 [12a2], the IC50 was 14.9 ± 1.32 µM. Work on COc1cc(/C(C#N)=C/c2ccc(NC(=O)CN3CCCC3)cc2)cc(OC)c1OC [12a3] yielded an IC50 of 12.6 ± 0.91 µM.

Tested on: not given
Experiment: not given
Settings: not given
For COc1cc(/C(C#N)=C/c2ccc(N)cc2C)cc(OC)c1OC [9b], the melting point was 224 to 230 °C.

Tested on: L-02 normal liver cell
Experiment: MTT cell growth inhibition assay, L-02 normal liver cells
Assay type: cell-based
Settings: Homo sapiens, mean ± SD of three experiments
Source text: as §1, §2, §3
In the case of COc1cc(/C(C#N)=C/c2ccc(N)cc2C)cc(OC)c1OC [9b], the IC50 is reported as 6.01 ± 1.35 µM. COc1ccc(/C(C#N)=C/c2ccc(N)cc2)cc1OC [9c] gave an IC50 of 15.7 ± 1.79 µM. Compound COc1ccc(/C(C#N)=C/c2ccc(N)cc2C)cc1OC [9d, (Z)-3-(4-Amino-2-methylphenyl)-2-(3,4-dimethoxyphenyl)acrylonitrile monohydrochloride] has an IC50 of 62.1 ± 10.6 µM. With CCN1CCN(CC(=O)Nc2ccc(/C=C(\C#N)c3cc(OC)c(OC)c(OC)c3)cc2)CC1 [12a2] the IC50 was 16.6 ± 1.14 µM. Work on COc1cc(/C(C#N)=C/c2ccc(NC(=O)CN3CCCC3)cc2)cc(OC)c1OC [12a3] yielded an IC50 of 11 ± 0.82 µM.

Tested on: MCF-10A normal breast cell
Experiment: MTT cell growth inhibition assay, MCF-10A normal breast cells
Assay type: cell-based
Settings: Homo sapiens, mean ± SD of three experiments, read-out: IC50 MCF-10A Normal Breast Epithelial Cells
Source text: as §1, §2, §3
In the case of COc1cc(/C(C#N)=C/c2ccc(N)cc2C)cc(OC)c1OC [9b], the IC50 is reported as > 100 µM. In the case of COc1ccc(/C(C#N)=C/c2ccc(N)cc2)cc1OC [9c], the IC50 is reported as > 100 µM. With COc1ccc(/C(C#N)=C/c2ccc(N)cc2C)cc1OC [9d, (Z)-3-(4-Amino-2-methylphenyl)-2-(3,4-dimethoxyphenyl)acrylonitrile monohydrochloride] the IC50 was > 100 µM. CCN1CCN(CC(=O)Nc2ccc(/C=C(\C#N)c3cc(OC)c(OC)c(OC)c3)cc2)CC1 [12a2] showed an IC50 of 25.8 ± 3.73 µM. Compound COc1cc(/C(C#N)=C/c2ccc(NC(=O)CN3CCCC3)cc2)cc(OC)c1OC [12a3] has an IC50 of 16.9 ± 1.24 µM.

Tested on: not listed separately
Experiment: Aqueous solubility in 0.01 M PBS, high throughput UV method
Assay type: physicochemical
Settings: aqueous phosphate buffer, aqueous buffer; sodium phosphate buffer 0.01 M, pH 7.4, 22 ± 2 °C; mean ± SD
Source text: as §1
The aqueous solubility was determined as a previously reported procedure. Put simply, a certain amount of powdered compound was placed in a 2 mL centrifuge tube and mixed with an appropriate volume of aqueous phosphate buffer (10 mM, pH 7.4) to make the whole system supersaturated. The mixtures were sonicated (KQ5200DE numerical control ultrasonic cleaner, Kunshan Ultrasonic Instrument Co., Ltd., SuZhou, China) for 20 min. After sonication, the mixture was allowed to equilibrate at RT (22 ± 2 °C) for 1.5 h with vortex shaking (1200 rpm). Then centrifuged at 3000 rpm for 15 min (1-14k, sigma, Darmstadt, Germany), the supernatant was filtered with a 0.22 µM filter membrane. And then, take 150 µL of filtrate and add it to 96-well UV plate with triplicate. Draw 150 μL of blank solution was added into plate as blank control. The 96-well UV plate prepared above was read on a Synergy HTX Multifunctional Microplate Reader (BioTek, Vermont, USA) at 294 nm. The absorbance of the sample was corrected according to the UV response of the sample and blank solution, and the corrected UV response values were used for solubility calculations by bringing into the standard curve of the compound. […]
1.5. Solubility Assessment
The aqueous solubility was determined as previously reported using the high throughput solubility screens procedure published by Bruno Bard et al [9. 10]. Put simply, a certain amount of powdered compound was placed in a 2 ml centrifuge tube and mixed with an appropriate volume of aqueous phosphate buffer (0.01 M, pH 7.4) to make the whole system supersaturated. The mixtures were sonicated (KQ5200DE numerical control ultrasonic cleaner, Kunshan Ultrasonic Instrument Co., Ltd., China) for 20 min. After sonication, the mixture was allowed to equilibrate at room temperature (22 ± 2°C) for 1.5 h with vortex shaking (1200 rpm). Then the centrifuge tube was put into the centrifuge (1-14k, sigma, Germany), centrifuged with 3000 rpm for 15 minutes, 0.22 µM filter membrane filtration supernatant, then take 150 µl filtrate and add it to 96-well UV plate, with three well for each compound. Draw 150 μL blank solution were added into 96 well-plate as blank control. The 96-well UV […]
plate prepared above was read on a SynergyHTX Multifunctional microplate reader (BioTek, USA) at 338 nm (compounds 12a-12d and 15-20) or 370 nm (compounds 9a-d). The absorbance of the sample was corrected according to the UV response of the sample and blank solution, and the corrected UV responses value were used for solubility calculations by bring into the standard curve of the compound. […]
COc1cc(/C(C#N)=C/c2ccc(N)cc2C)cc(OC)c1OC [9b] gave a solubility thermodynamic at 1.5 h of 1.2 ± 0.3 µg/mL. In the case of COc1ccc(/C(C#N)=C/c2ccc(N)cc2)cc1OC [9c], the solubility thermodynamic at 1.5 h is reported as 4.5 ± 0.6 µg/mL. In the case of COc1ccc(/C(C#N)=C/c2ccc(N)cc2C)cc1OC [9d, (Z)-3-(4-Amino-2-methylphenyl)-2-(3,4-dimethoxyphenyl)acrylonitrile monohydrochloride], the solubility thermodynamic at 1.5 h is reported as 1.7 ± 0.2 µg/mL. For CCN1CCN(CC(=O)Nc2ccc(/C=C(\C#N)c3cc(OC)c(OC)c(OC)c3)cc2)CC1 [12a2], the solubility thermodynamic at 1.5 h was 26940 ± 78.8 µg/mL. With COc1cc(/C(C#N)=C/c2ccc(NC(=O)CN3CCCC3)cc2)cc(OC)c1OC [12a3] the solubility thermodynamic at 1.5 h was 67.4 ± 2.9 µg/mL.

Same assay, conditions: ratio to 9a
For COc1cc(/C(C#N)=C/c2ccc(N)cc2C)cc(OC)c1OC [9b], the “Decrease of aqueous solubility compared with 9a” value was “nine times”.
